Experimental findings from PubChem BioAssay (NCI) are described below.

Some test systems named below: T-47D breast; UACC-62 melanoma; 786-0 renal; SK-MEL-28 melanoma; SF-295 CNS; MDA-MB-231 breast; SN12C renal; PC-3 prostate; SK-MEL-2 melanoma; COLO 205 colon.
What all share (assay): DTP human tumour cell line panel, 48 h

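Interpolation was linear, between the two tested concentrations surrounding the appropriate level; five concentrations were tested over 48 hours in 96-well plates. At the TGI there is no net growth.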

As a reminder, the TGI is the concentration giving total growth inhibition. A low value points to greater sensitivity of the cells. As for `C#C[C@@]1(O)CCCC2=CC3(CC[C@]21C)SCCS3`, the TGI with T-47D breast, in the assay with UACC-62 melanoma, in the assay with 786-0 renal, in the assay with SK-MEL-28 melanoma, in the assay with SF-295 CNS and in the assay on MDA-MB-231 breast was above 100 µM throughout. Moreover, the TGI in the assay on SN12C renal, in the assay with PC-3 prostate, in the assay with SK-MEL-2 melanoma and in the assay with COLO 205 colon was above 100 µM each time.

As for `Nn1c(=O)[nH]c2ncn(Cc3ccccc3)c2c1=O`, the total growth inhibition concentration (TGI) in the assay on T-47D breast, in the assay with UACC-62 melanoma, in the assay on 786-0 renal, in the assay on SK-MEL-28 melanoma, in the assay on SF-295 CNS and in the assay with MDA-MB-231 breast was above 100 µM each time. For the same compound, the TGI with SN12C renal, in the assay on PC-3 prostate, with SK-MEL-2 melanoma and in the assay with COLO 205 colon was above 100 µM in each case.

For the compound `O=C1CC(=O)NC(=NN2C(=O)CSC2C(=O)c2ccco2)N1` (stereo not given), the total growth inhibition concentration (TGI) in the assay with T-47D breast, in the assay on UACC-62 melanoma, in the assay on 786-0 renal, in the assay on SK-MEL-28 melanoma, in the assay on SF-295 CNS and in the assay with MDA-MB-231 breast was above 100 µM each time. Also, the TGI in the assay on SN12C renal, in the assay on PC-3 prostate, in the assay with SK-MEL-2 melanoma and with COLO 205 colon was above 100 µM in each case.

As for `CN1CCc2c(sc3ncn(Nc4ccc(Cl)cc4)c(=N)c23)C1`, the concentration for total growth inhibition (TGI) in the assay on T-47D breast, in the assay on UACC-62 melanoma, in the assay with 786-0 renal, in the assay with SK-MEL-28 melanoma, in the assay with SF-295 CNS and with MDA-MB-231 breast was above 100 µM throughout. Further, the TGI in the assay with SN12C renal, in the assay with PC-3 prostate, in the assay with SK-MEL-2 melanoma and with COLO 205 colon was above 100 µM each time.

With `CCOC(=O)CCN1C(=O)C(=O)N(c2ccc(OC)cc2)C1=S`, the TGI in the assay on T-47D breast is above 100 µM; in the assay on UACC-62 melanoma it was 48.5 µM; in the assay on 786-0 renal, above 100 µM; with SK-MEL-28 melanoma it was above 100 µM; with SF-295 CNS, above 100 µM; with MDA-MB-231 breast, above 100 µM. Besides, the TGI in the assay with SN12C renal, in the assay on PC-3 prostate, with SK-MEL-2 melanoma and in the assay on COLO 205 colon was above 100 µM throughout.

For the compound `O=C(c1cccs1)N1CCCN(C(=O)c2cccs2)C1=S`, the concentration for total growth inhibition (TGI) in the assay with T-47D breast, with UACC-62 melanoma, in the assay with 786-0 renal, in the assay on SK-MEL-28 melanoma, with SF-295 CNS and in the assay on MDA-MB-231 breast was above 100 µM each time. Moreover, the TGI in the assay on SN12C renal, in the assay on PC-3 prostate, with SK-MEL-2 melanoma and in the assay on COLO 205 colon was above 100 µM in each case.

Regarding `S=c1nc(N/N=C/c2cccs2)c2cn[nH]c2[nH]1`, the TGI was above 100 µM in the assay on T-47D breast; above 100 µM in the assay with UACC-62 melanoma; above 100 µM in the assay with 786-0 renal; above 100 µM in the assay with SK-MEL-28 melanoma; 41.4 µM with SF-295 CNS; above 100 µM with MDA-MB-231 breast. Further, the TGI in the assay with SN12C renal was above 100 µM; in the assay with PC-3 prostate it was 37.5 µM; in the assay with SK-MEL-2 melanoma, above 100 µM; with COLO 205 colon, above 100 µM.

Turning to `COc1cccc2cc(C(=O)Nc3ccccc3)c(=N)oc12`, the TGI with T-47D breast was above 31.4 µM; in the assay with UACC-62 melanoma, above 100 µM; in the assay on 786-0 renal, above 100 µM; in the assay with SK-MEL-28 melanoma, above 100 µM; in the assay on SF-295 CNS, above 100 µM; in the assay with MDA-MB-231 breast, above 100 µM. The TGI in the assay with SN12C renal, with PC-3 prostate, in the assay on SK-MEL-2 melanoma and with COLO 205 colon was above 100 µM throughout.

For the compound `C=CCOC(=O)N1c2ccc(O)cc2[C@@]23O[C@@]24[C@@H]1C#C/C=C\C#C[C@]3(O)C(OC)(OC)C[C@@H]4C`, the TGI with T-47D breast was above 100 µM; in the assay on UACC-62 melanoma, above 100 µM; in the assay on 786-0 renal it was 78.3 µM; in the assay on SK-MEL-28 melanoma, above 100 µM; with SF-295 CNS it was above 100 µM; in the assay on MDA-MB-231 breast it was 52.8 µM. Besides, the total growth inhibition concentration (TGI) was determined as 61.6 µM in the assay on SN12C renal, 77.6 µM with PC-3 prostate, 58.3 µM in the assay on SK-MEL-2 melanoma and 33.1 µM in the assay with COLO 205 colon.

For `O=[N+]([O-])c1cc(F)ccc1S(=O)(=O)c1ccccc1`, the TGI in the assay with T-47D breast, in the assay on UACC-62 melanoma, in the assay with 786-0 renal, in the assay with SK-MEL-28 melanoma, in the assay on SF-295 CNS and in the assay on MDA-MB-231 breast was above 10 µM in each case. For the same compound, the TGI in the assay with SN12C renal, in the assay on PC-3 prostate, in the assay with SK-MEL-2 melanoma and in the assay on COLO 205 colon was above 10 µM in each case.

As to `COc1ccc2c(c1)NC1(CCN(CCCC(=O)c3ccc(F)cc3)CC1)N=N2`, the concentration for total growth inhibition (TGI) amounted to 53.5 µM in the assay on T-47D breast; 41.6 µM in the assay with UACC-62 melanoma; 36.9 µM in the assay with 786-0 renal; 37 µM with SK-MEL-28 melanoma; 46.3 µM in the assay on SF-295 CNS; 45.7 µM in the assay with MDA-MB-231 breast. Besides, the concentration for total growth inhibition (TGI) with SN12C renal is 64.4 µM; in the assay on PC-3 prostate it was above 100 µM; with SK-MEL-2 melanoma, 39.8 µM; with COLO 205 colon, 27.8 µM.

Turning to `C=CCOC(OCC=C)/C(Br)=C/C`, the TGI in the assay on T-47D breast was 72.6 µM; in the assay on UACC-62 melanoma, above 100 µM; in the assay with 786-0 renal, 34 µM; in the assay on SK-MEL-28 melanoma, above 100 µM; in the assay on SF-295 CNS it was above 100 µM; with MDA-MB-231 breast it was above 100 µM. The TGI in the assay with SN12C renal is above 100 µM; with PC-3 prostate it was above 100 µM; with SK-MEL-2 melanoma, above 100 µM; in the assay on COLO 205 colon, 52.9 µM.

`CCCCc1ccc(Nc2nc(Cl)c3ccn(C4CC(Oc5ccc(C)cc5)C(COc5ccc(C)cc5)O4)c3n2)cc1` (stereo not given): the TGI was above 46.4 µM with T-47D breast; 30.6 µM in the assay on UACC-62 melanoma; above 46.4 µM in the assay with 786-0 renal; above 100 µM with SK-MEL-28 melanoma; above 46.4 µM with SF-295 CNS; above 46.4 µM with MDA-MB-231 breast. The TGI was above 46.4 µM with SN12C renal, above 100 µM in the assay on PC-3 prostate, above 46.4 µM in the assay on SK-MEL-2 melanoma and above 46.4 µM in the assay with COLO 205 colon.
